From ChEMBL document CHEMBL1909046, “DrugMatrix in vitro pharmacology data”

What was measured:
[1] = DRUGMATRIX: Tumor Necrosis Factor (TNF), Non-Selective radioligand binding (ligand: [125I] TNF-alpha); assay type: cell membranes, Membrane; details: u-937; Not Active = under 50% inhibition at 10 µM
B2 bradykinin receptor = target: T1, B2 bradykinin receptor (Homo sapiens, UniProt P30411); assay type: cell membranes, Membrane; details: chem-1; note: in other assays of this panel Not Active means under 50% inhibition at 10 µM
T1 sequence (P30411 whole entry): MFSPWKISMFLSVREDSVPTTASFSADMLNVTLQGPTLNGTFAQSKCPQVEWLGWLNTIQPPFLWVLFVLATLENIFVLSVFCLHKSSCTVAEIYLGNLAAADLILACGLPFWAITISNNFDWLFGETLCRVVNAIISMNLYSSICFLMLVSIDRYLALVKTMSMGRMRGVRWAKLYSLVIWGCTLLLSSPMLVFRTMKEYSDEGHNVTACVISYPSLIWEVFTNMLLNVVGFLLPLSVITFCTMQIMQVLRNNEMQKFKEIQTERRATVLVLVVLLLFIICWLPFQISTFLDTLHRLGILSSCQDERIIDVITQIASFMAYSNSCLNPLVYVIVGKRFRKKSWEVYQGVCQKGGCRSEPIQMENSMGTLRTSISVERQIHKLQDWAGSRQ

Cathepsin G = target: T2, Cathepsin G (Homo sapiens, UniProt P08311); assay type: tissue-based; details: neutrophil;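 note: inhibition of Cathepsin G enzyme activity, tested on an AMC-conjugated peptide substrate; in other assays of this panel Not Active means under 50% inhibition at 10 µM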
T2 sequence (P08311 whole entry): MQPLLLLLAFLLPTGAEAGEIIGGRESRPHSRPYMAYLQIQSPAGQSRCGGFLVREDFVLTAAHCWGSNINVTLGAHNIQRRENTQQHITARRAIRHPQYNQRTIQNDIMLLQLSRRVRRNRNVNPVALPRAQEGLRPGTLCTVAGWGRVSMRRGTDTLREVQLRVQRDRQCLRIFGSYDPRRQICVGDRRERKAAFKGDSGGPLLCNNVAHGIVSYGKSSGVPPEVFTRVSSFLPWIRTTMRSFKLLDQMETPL

[2] = target: T3, Alpha-1D adrenergic receptor (Homo sapiens, UniProt P25100); assay type: cell membranes, HEK293, Membrane; details: for Ki: read-out: Ki; for all read-outs here: in other assays of this panel Not Active means under 50% inhibition at 10 µM
T3 sequence (P25100 whole entry): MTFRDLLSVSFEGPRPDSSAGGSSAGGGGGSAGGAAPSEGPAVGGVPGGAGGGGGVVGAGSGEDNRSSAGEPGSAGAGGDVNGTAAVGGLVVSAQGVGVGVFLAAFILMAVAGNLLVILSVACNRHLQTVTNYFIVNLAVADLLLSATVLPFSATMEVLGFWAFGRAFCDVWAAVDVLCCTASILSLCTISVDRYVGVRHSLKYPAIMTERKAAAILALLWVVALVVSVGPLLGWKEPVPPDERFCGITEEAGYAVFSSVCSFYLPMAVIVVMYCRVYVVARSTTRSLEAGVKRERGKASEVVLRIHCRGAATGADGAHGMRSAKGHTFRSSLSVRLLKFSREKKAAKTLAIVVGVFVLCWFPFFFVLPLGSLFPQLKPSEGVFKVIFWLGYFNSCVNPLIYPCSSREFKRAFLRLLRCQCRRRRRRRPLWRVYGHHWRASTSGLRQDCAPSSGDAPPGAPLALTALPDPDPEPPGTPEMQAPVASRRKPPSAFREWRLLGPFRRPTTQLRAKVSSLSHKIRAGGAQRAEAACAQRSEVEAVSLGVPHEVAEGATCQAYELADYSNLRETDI

Glucocorticoid receptor = target: T4, Glucocorticoid receptor (Homo sapiens, UniProt P04150); details: hela s3; note: in other assays of this panel Not Active means under 50% inhibition at 10 µM
T4 sequence (P04150 whole entry): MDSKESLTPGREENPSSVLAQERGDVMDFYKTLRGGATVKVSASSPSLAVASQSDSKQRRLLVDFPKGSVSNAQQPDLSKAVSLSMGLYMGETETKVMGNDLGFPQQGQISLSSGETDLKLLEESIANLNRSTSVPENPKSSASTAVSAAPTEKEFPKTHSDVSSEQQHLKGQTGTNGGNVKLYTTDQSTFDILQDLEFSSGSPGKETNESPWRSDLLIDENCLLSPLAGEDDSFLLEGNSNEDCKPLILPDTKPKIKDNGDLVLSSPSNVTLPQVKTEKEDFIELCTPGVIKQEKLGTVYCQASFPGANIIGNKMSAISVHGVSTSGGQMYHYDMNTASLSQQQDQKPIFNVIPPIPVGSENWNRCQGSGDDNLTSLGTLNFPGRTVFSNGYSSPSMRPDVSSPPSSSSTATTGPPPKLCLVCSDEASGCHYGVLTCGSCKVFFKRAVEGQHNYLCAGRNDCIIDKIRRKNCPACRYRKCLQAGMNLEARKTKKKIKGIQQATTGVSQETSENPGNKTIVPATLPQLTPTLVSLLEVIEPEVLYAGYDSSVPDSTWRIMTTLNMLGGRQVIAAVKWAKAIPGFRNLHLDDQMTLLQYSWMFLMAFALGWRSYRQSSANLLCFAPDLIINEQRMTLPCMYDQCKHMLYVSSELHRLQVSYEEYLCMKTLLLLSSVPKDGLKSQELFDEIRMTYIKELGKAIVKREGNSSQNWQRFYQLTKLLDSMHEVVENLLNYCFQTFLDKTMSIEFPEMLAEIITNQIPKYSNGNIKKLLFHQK

[3] = DRUGMATRIX: Nicotinic Acetylcholine radioligand binding (ligand: [125I] Epibatidine); assay type: cell membranes, Membrane; details: imr-32; Not Active = under 50% inhibition at 10 µM
[4] = target: Mitogen-activated protein kinase 14 (Homo sapiens, UniProt Q16539); design: species or system Escherichia coli
Sequence of Mitogen-activated protein kinase 14 (Q16539 whole entry): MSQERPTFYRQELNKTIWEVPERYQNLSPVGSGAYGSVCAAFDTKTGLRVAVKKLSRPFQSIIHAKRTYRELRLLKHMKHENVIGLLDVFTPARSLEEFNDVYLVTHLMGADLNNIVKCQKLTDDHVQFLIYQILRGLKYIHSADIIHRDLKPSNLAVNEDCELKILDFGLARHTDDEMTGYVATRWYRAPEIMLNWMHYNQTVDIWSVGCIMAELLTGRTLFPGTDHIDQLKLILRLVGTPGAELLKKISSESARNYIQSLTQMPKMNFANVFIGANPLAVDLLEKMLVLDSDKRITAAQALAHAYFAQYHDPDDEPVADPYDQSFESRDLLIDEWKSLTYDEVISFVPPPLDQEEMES

[5] = DRUGMATRIX: Platelet-Derived Growth Factor (PDGF) radioligand binding (ligand: [125I] PDGF); assay type: cell-based; details: nih3t3; Not Active = under 50% inhibition at 10 µM

SMILES	IC50 [1]	Ki [1]	IC50 (B2 bradykinin receptor)	IC50 (Cathepsin G)	IC50 ([2]; hek293)	IC50 (Glucocorticoid receptor)	IC50 [3]	Ki [3]	IC50 [4]	IC50 [5]	Ki [5]	IC50 ([2]; read-out: IC50)	Ki [2]
O=C(O)P(=O)(O)O [FOSCARNET]	Not Active	Not Active	Not Active	Not Active	Not Active	Not Active	Not Active	Not Active	Not Active	Not Active	Not Active		
O=c1c(-c2ccc(O)cc2)coc2cc(O)cc(O)c12 [GENISTEIN]	Not Active	Not Active	Not Active	Not Active	Not Active	Not Active	Not Active	Not Active	Not Active	Not Active	Not Active		
CCC1=C(C)CN(C(=O)NCCc2ccc(S(=O)(=O)NC(=O)N[C@H]3CC[C@H](C)CC3)cc2)C1=O [GLIMEPIRIDE]	Not Active	Not Active	Not Active	Not Active	Not Active	Not Active	Not Active	Not Active	Not Active	Not Active	Not Active		
Nc1cc(-c2ccncc2)c[nH]c1=O [INAMRINONE]	Not Active	Not Active	Not Active	Not Active	Not Active	Not Active	Not Active	Not Active	Not Active	Not Active	Not Active		
CN1CCC(=C2c3ccccc3CC(=O)c3sccc32)CC1 [KETOTIFEN]	Not Active	Not Active	Not Active	Not Active		Not Active	Not Active	Not Active	Not Active	Not Active	Not Active	3.73 µM	1.83 µM
N[C@@H](Cn1ccc(=O)c(O)c1)C(=O)O [L-MIMOSINE]	Not Active	Not Active	Not Active	Not Active	Not Active	Not Active	Not Active	Not Active	Not Active	Not Active	Not Active		
C[N+](C)(C)C[C@H](O)CC(=O)[O-] [LEVOCARNITINE]	Not Active	Not Active	Not Active	Not Active	Not Active	Not Active	Not Active	Not Active	Not Active	Not Active	Not Active		
CCn1cc(C(=O)O)c(=O)c2cc(F)c(N3CCNC(C)C3)c(F)c21 (stereo not given) [LOMEFLOXACIN]	Not Active	Not Active	Not Active	Not Active	Not Active	Not Active	Not Active	Not Active	Not Active	Not Active	Not Active		
CN1CCCC(CN2c3ccccc3Sc3ccccc32)C1 (stereo not given) [MEPAZINE]	Not Active	Not Active	Not Active	Not Active		Not Active	Not Active	Not Active	Not Active	Not Active	Not Active	0.137 µM	0.067 µM
Cc1cccc(C)c1NC(=O)C1CCCCN1C (stereo not given) [MEPIVACAINE]	Not Active	Not Active	Not Active	Not Active	Not Active	Not Active	Not Active	Not Active	Not Active	Not Active	Not Active		
CN(C)C(=N)NC(=N)N [METFORMIN]	Not Active	Not Active	Not Active	Not Active	Not Active	Not Active	Not Active	Not Active	Not Active	Not Active	Not Active		
CC(C)(C)NCC(O)COc1cccc2c1CC(O)C(O)C2 (stereo not given) [NADOLOL]	Not Active	Not Active	Not Active	Not Active	Not Active	Not Active	Not Active	Not Active	Not Active	Not Active	Not Active		
C[C@]12CC[C@H]3[C@@H](CCC4=CC(=O)CC[C@@H]43)[C@@H]1CC[C@@H]2O [NANDROLONE]	Not Active	Not Active	Not Active	Not Active	Not Active	Not Active	Not Active	Not Active	Not Active	Not Active	Not Active		
C[C@@H]1C/C=C/C=C/C=C/C=C/[C@H](O[C@@H]2O[C@H](C)[C@@H](O)[C@H](N)[C@@H]2O)C[C@@H]2O[C@](O)(C[C@@H](O)C[C@H]3O[C@@H]3/C=C/C(=O)O1)C[C@H](O)[C@H]2C(=O)O [NATAMYCIN]	Not Active	Not Active	Not Active	Not Active	Not Active	Not Active	Not Active	Not Active	Not Active	Not Active	Not Active		
CN(C)C(=O)Oc1cccc([N+](C)(C)C)c1.[Br-] [NEOSTIGMINE BROMIDE]	Not Active	Not Active	Not Active	Not Active	Not Active	Not Active	Not Active	Not Active	Not Active	Not Active	Not Active		
NC(=O)c1cccnc1 [NIACINAMIDE]	Not Active	Not Active	Not Active	Not Active	Not Active	Not Active	Not Active	Not Active	Not Active	Not Active	Not Active		
CN1C(=O)CN=C(c2ccccc2)c2cc([N+](=O)[O-])ccc21 [NIMETAZEPAM]	Not Active	Not Active	Not Active	Not Active	Not Active	Not Active	Not Active	Not Active	Not Active	Not Active	Not Active		
COc1ccc2c(c1OC)C(=O)O[C@@H]2[C@H]1c2c(cc3c(c2OC)OCO3)CCN1C [NOSCAPINE]	Not Active	Not Active	Not Active	Not Active	Not Active	Not Active	Not Active	Not Active	Not Active	Not Active	Not Active		
